According to patent US11802111B2, “Cyclobutyl amide monoacylglycerol lipase modulators” (Janssen Pharmaceutica NV, priority 2020, dated 2023):

Target: human MGL from HeLa cells (Homo sapiens (Human), UniProt Q99685)
Experiment: MGL in vitro activity assay ([glycerol-1,3-3H]-oleoyl glycerol hydrolysis, activated carbon filtration)
Type: biochemical
Conditions: 300 nM [Glycerol-1,3-3H]-oleoyl glycerol, one hour
Summary of the method: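 Endogenous human MGL in HeLa cells/homogenates incubated 1 h with test compounds and 300 nM [glycerol-1,3-3H]-oleoyl glycerol. Released 3H-glycerol passing an activated carbon filter counted as activity; screening at 10 μM compound, top IC50 concentration set empirically.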

Sequence of human MGL from HeLa cells (Q99685 whole entry): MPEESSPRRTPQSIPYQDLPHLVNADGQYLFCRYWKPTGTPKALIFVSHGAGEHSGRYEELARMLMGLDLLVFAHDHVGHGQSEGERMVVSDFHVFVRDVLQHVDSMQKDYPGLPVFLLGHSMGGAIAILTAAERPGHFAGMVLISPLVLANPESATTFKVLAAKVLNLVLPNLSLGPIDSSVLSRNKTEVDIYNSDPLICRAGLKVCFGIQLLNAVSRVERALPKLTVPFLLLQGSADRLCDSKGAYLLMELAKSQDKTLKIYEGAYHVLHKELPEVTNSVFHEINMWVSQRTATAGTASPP

Compound	IC50
CCOc1cccc(C2CCC3(CC2)CN(C(=O)[C@H]2C[C@@](C)(O)C2)C3)c1C [Example 361, (7-(3-Ethoxy-2-methylphenyl)-2-azaspiro[3.5]nonan-2-yl)((1s,3s)-3-hydroxy-3-methylcyclobutyl)methanone]	0.0018 µM
Cc1c(OC(C)C)cccc1C1CCC2(CC1)CN(C(=O)[C@H]1C[C@@](C)(O)C1)C2 [Example 362, ((1s,3s)-3-Hydroxy-3-methylcyclobutyl)(7-(3-isopropoxy-2-methylphenyl)-2-azaspiro[3.5]nonan-2-yl)methanone]	0.0015 µM
COc1ccc(C)c(C2CCC3(CC2)CN(C(=O)[C@H]2C[C@@](C)(O)C2)C3)c1 [Example 363, ((1s,3s)-3-Hydroxy-3-methylcyclobutyl)(7-(5-methoxy-2-methylphenyl)-2-azaspiro[3.5]nonan-2-yl)methanone]	0.164 µM
Cc1c(OC2CC2)cccc1C1CCC2(CC1)CN(C(=O)[C@H]1C[C@@](C)(O)C1)C2 [Example 364, (7-(3-Cyclopropoxy-2-methylphenyl)-2-azaspiro[3.5]nonan-2-yl)((1s,3s)-3-hydroxy-3-methylcyclobutyl)methanone]	0.0029 µM
CCOc1cc(F)cc(C2CCC3(CC2)CN(C(=O)[C@H]2C[C@@](C)(O)C2)C3)c1 [Example 365, (7-(3-Ethoxy-5-fluorophenyl)-2-azaspiro[3.5]nonan-2-yl)((1s,3s)-3-hydroxy-3-methylcyclobutyl)methanone]	0.022 µM
COc1cccc(C2CCC3(CC2)CN(C(=O)[C@H]2C[C@@](C)(O)C2)C3)c1F [Example 366, (7-(2-Fluoro-3-methoxyphenyl)-2-azaspiro[3.5]nonan-2-yl)((1s,3s)-3-hydroxy-3-methylcyclobutyl)methanone]	0.05 µM
COc1cccc(C2CCC3(CC2)CN(C(=O)[C@H]2C[C@@](C)(O)C2)C3)c1Cl [Example 367, (7-(2-Chloro-3-methoxyphenyl)-2-azaspiro[3.5]nonan-2-yl)((1s,3s)-3-hydroxy-3-methylcyclobutyl)methanone]	0.04 µM
COc1cc(F)c(F)c(C2CCC3(CC2)CN(C(=O)[C@H]2C[C@@](C)(O)C2)C3)c1 [Example 368, (7-(2,3-Difluoro-5-methoxyphenyl)-2-azaspiro[3.5]nonan-2-yl)((1s,3s)-3-hydroxy-3-methylcyclobutyl)methanone]	0.059 µM
COc1cc(F)cc(C2CCC3(CC2)CN(C(=O)[C@H]2C[C@@](C)(O)C2)C3)c1F [Example 369, (7-(2,5-Difluoro-3-methoxyphenyl)-2-azaspiro[3.5]nonan-2-yl)((1s,3s)-3-hydroxy-3-methylcyclobutyl)methanone]	0.035 µM
COc1cc(C2CCC3(CC2)CN(C(=O)[C@H]2C[C@@](C)(O)C2)C3)cc(F)c1C [Example 370, (7-(3-Fluoro-5-methoxy-4-methylphenyl)-2-azaspiro[3.5]nonan-2-yl)((1s,3s)-3-hydroxy-3-methylcyclobutyl)methanone]	0.011 µM
C[C@]1(O)C[C@@H](C(=O)N2CC3(CCC(c4cccc(C5(C(F)(F)F)CC5)n4)CC3)C2)C1 [Example 371, ((1s,3s)-3-Hydroxy-3-methylcyclobutyl)(7-(6-(1-(trifluoromethyl)cyclopropyl)pyridin-2-yl)-2-azaspiro[3.5]nonan-2-yl)methanone]	0.0064 µM
CC1(c2cccc(C3CCC4(CC3)CN(C(=O)[C@H]3C[C@@](C)(O)C3)C4)n2)CC1 [Example 372, ((1s,3s)-3-Hydroxy-3-methylcyclobutyl)(7-(6-(1-methylcyclopropyl)pyridin-2-yl)-2-azaspiro[3.5]nonan-2-yl)methanone]	0.0051 µM
Cc1ccc(C2CCC3(CC2)CN(C(=O)[C@H]2C[C@@](C)(O)C2)C3)nc1C(C)C [Example 373, ((1s,3s)-3-Hydroxy-3-methylcyclobutyl)(7-(6-isopropyl-5-methylpyridin-2-yl)-2-azaspiro[3.5]nonan-2-yl)methanone]	0.0024 µM
Cc1cc(OC(C)C)nc(C2CCC3(CC2)CN(C(=O)[C@H]2C[C@@](C)(O)C2)C3)c1 [Example 374, ((1s,3s)-3-Hydroxy-3-methylcyclobutyl)(7-(6-isopropoxy-4-methylpyridin-2-yl)-2-azaspiro[3.5]nonan-2-yl)methanone]	0.0093 µM
COc1cc(C)nc(C2CCC3(CC2)CN(C(=O)[C@H]2C[C@@](C)(O)C2)C3)c1 [Example 375, ((1s,3s)-3-Hydroxy-3-methylcyclobutyl)(7-(4-methoxy-6-methylpyridin-2-yl)-2-azaspiro[3.5]nonan-2-yl)methanone]	0.231 µM
Cc1c(C2CCC3(CC2)CN(C(=O)[C@H]2C[C@@](C)(O)C2)C3)ccnc1OC(C)C [Example 376, ((1s,3s)-3-Hydroxy-3-methylcyclobutyl)(7-(2-isopropoxy-3-methylpyridin-4-yl)-2-azaspiro[3.5]nonan-2-yl)methanone]	0.017 µM
CC(C)(C)c1cncc(C2CCC3(CC2)CN(C(=O)[C@H]2C[C@@](C)(O)C2)C3)n1 [Example 377, (7-(6-(tert-Butyl)pyrazin-2-yl)-2-azaspiro[3.5]nonan-2-yl)((1s,3s)-3-hydroxy-3-methylcyclobutyl)methanone]	0.082 µM

Compound	IC50
CC(C)(C)c1ccnc(C2CCC3(CC2)CN(C(=O)[C@H]2C[C@@](C)(O)C2)C3)n1 [Example 378, (7-(4-(tert-Butyl)pyrimidin-2-yl)-2-azaspiro[3.5]nonan-2-yl)((1s,3s)-3-hydroxy-3-methylcyclobutyl)methanone]	0.037 µM
CC(C)(C)n1ccc(C2CCC3(CC2)CN(C(=O)[C@H]2C[C@@](C)(O)C2)C3)n1 [Example 379, (7-(1-(tert-Butyl)-1H-pyrazol-3-yl)-2-azaspiro[3.5]nonan-2-yl)((1s,3s)-3-hydroxy-3-methylcyclobutyl)methanone]	0.056 µM
C[C@]1(O)C[C@@H](C(=O)N2CC3(CCC(c4ccn(-c5ccccc5)n4)CC3)C2)C1 [Example 380, ((1s,3s)-3-Hydroxy-3-methylcyclobutyl)(7-(1-phenyl-1H-pyrazol-3-yl)-2-azaspiro[3.5]nonan-2-yl)methanone]	0.023 µM
CC(C)(C)n1cnc(C2CCC3(CC2)CN(C(=O)[C@H]2C[C@@](C)(O)C2)C3)c1 [Example 381, (7-(1-(tert-Butyl)-1H-imidazol-4-yl)-2-azaspiro[3.5]nonan-2-yl)((1s,3s)-3-hydroxy-3-methylcyclobutyl)methanone]	1.39 µM
CC(C)(C)c1cc(C2CCC3(CC2)CN(C(=O)[C@H]2C[C@@](C)(O)C2)C3)on1 [Example 382, (7-(3-(tert-Butyl)isoxazol-5-yl)-2-azaspiro[3.5]nonan-2-yl)((1s,3s)-3-hydroxy-3-methylcyclobutyl)methanone]	0.178 µM
Cn1cc(C2CCC3(CC2)CN(C(=O)[C@H]2C[C@@](C)(O)C2)C3)c2cccnc21 [Example 383, ((1s,3s)-3-Hydroxy-3-methylcyclobutyl)(7-(1-methyl-1H-pyrrolo[2,3-b]pyridin-3-yl)-2-azaspiro[3.5]nonan-2-yl)methanone]	0.18 µM
Cn1ccc2ccc(C3CCC4(CC3)CN(C(=O)[C@H]3C[C@@](C)(O)C3)C4)nc21 [Example 384, ((1s,3s)-3-Hydroxy-3-methylcyclobutyl)(7-(1-methyl-1H-pyrrolo[2,3-b]pyridin-6-yl)-2-azaspiro[3.5]nonan-2-yl)methanone]	0.097 µM
CC(C)n1ccc2ccc(C3CCC4(CC3)CN(C(=O)[C@H]3C[C@@](C)(O)C3)C4)nc21 [Example 385, ((1s,3s)-3-Hydroxy-3-methylcyclobutyl)(7-(1-isopropyl-1H-pyrrolo[2,3-b]pyridin-6-yl)-2-azaspiro[3.5]nonan-2-yl)methanone]	0.03 µM
Cn1cc(C(F)(F)F)c2ccc(C3CCC4(CC3)CN(C(=O)[C@H]3C[C@@](C)(O)C3)C4)nc21 [Example 386, ((1s,3s)-3-Hydroxy-3-methylcyclobutyl)(7-(1-methyl-3-(trifluoromethyl)-1H-pyrrolo[2,3-b]pyridin-6-yl)-2-azaspiro[3.5]nonan-2-yl)methanone]	0.019 µM
C[C@]1(O)C[C@@H](C(=O)N2CC3(CCC(c4ccc5ccn(CC(F)(F)F)c5n4)CC3)C2)C1 [Example 387, ((1s,3s)-3-Hydroxy-3-methylcyclobutyl)(7-(1-(2,2,2-trifluoroethyl)-1H-pyrrolo[2,3-b]pyridin-6-yl)-2-azaspiro[3.5]nonan-2-yl)methanone]	0.068 µM
C[C@]1(O)C[C@@H](C(=O)N2CC3(CCC(c4cc5ccccn5n4)CC3)C2)C1 [Example 388, ((1s,3s)-3-Hydroxy-3-methylcyclobutyl)(7-(pyrazolo[1,5-c]pyridin-2-yl)-2-azaspiro[3.5]nonan-2-yl)methanone]	0.198 µM
C[C@]1(O)C[C@@H](C(=O)N2CC3(CCC(c4cccc5ccnn45)CC3)C2)C1 [Example 389, ((1s,3s)-3-Hydroxy-3-methylcyclobutyl)(7-(pyrazolo[1,5-a]pyridin-7-yl)-2-azaspiro[3.5]nonan-2-yl)methanone]	0.101 µM
C[C@]1(O)C[C@@H](C(=O)N2CC3(CCC(c4cccc5nccn45)CC3)C2)C1 [Example 390]	0.722 µM
C[C@]1(O)C[C@@H](C(=O)N2CC3(CCC(c4cn5ccccc5n4)CC3)C2)C1 [Example 391]	1.27 µM
C[C@]1(O)C[C@@H](C(=O)N2CC3(CCC(c4cnc5ccccn45)CC3)C2)C1 [Example 392, ((1s,3s)-3-Hydroxy-3-methylcyclobutyl)(7-(imidazo[1,2-c]pyridin-3-yl)-2-azaspiro[3.5]nonan-2-yl)methanone]	0.79 µM
C[C@]1(O)C[C@@H](C(=O)N2CC3(CCC(c4cnn5cccc5c4)CC3)C2)C1 [Example 393, ((1s,3s)-3-Hydroxy-3-methylcyclobutyl)(7-(pyrrolo[1,2-b]pyridazin-3-yl)-2-azaspiro[3.5]nonan-2-yl)methanone]	0.027 µM
C[C@]1(O)C[C@@H](C(=O)N2CC3(CCC(c4cnn5ccccc45)CC3)C2)C1 [Example 394, ((1s,3s)-3-Hydroxy-3-methylcyclobutyl)(7-(pyrazolo[1,5-c]pyridin-3-yl)-2-azaspiro[3.5]nonan-2-yl)methanone]	0.226 µM
